# Assay results as given in patent US8466188B2, “Use of spiro-oxindole compounds as therapeutic agents” (Xenon Pharmaceuticals Inc., priority 2006, dated 2013).
row,Structure (SMILES),melting point [°C]
1,"O=C1N(Cc2ccc(C(F)(F)F)o2)c2ccc(F)cc2C12COc1cc3c(cc12)OCO3 (stereo not shown) [Example 1.26, 5′-fluoro-1′-{[5-(trifluoromethyl)-2-furyl]methyl}spiro[furo[2,3-f][1,3]benzodioxole-7,3′-indol]-2′(1′H)-one]",139 to 141
2,"O=C1Nc2ccccc2C12COc1cc3c(cc12)CCO3 (stereo not shown) [Example 1.51, 5,6-dihydrospiro[benzo[1,2-b:5,4-b′]difuran-3,3′-indol]-2′(1′H)-one]",208 to 210
3,Cl.O=C1N(Cc2cccnc2)c2ccccc2C12COc1cc(OC(F)(F)F)ccc12 (stereo not shown),151 to 153
4,Cl.O=C1N(CCC2CCN(C3CCCC3)CC2)c2ccccc2C12COc1cc3c(cc12)OCO3 (stereo not shown),153 to 155
5,"COC(=O)c1ccccc1CN1C(=O)C2(COc3cc4c(cc32)OCO4)c2ccccc21 (stereo not shown) [Example 1.4, methyl 2-[(2′-oxospiro[furo[2,3-f][1,3]benzodioxole-7,3′-indol]-1′(2′H)-yl)methyl]benzoate]",166 to 167
6,"O=C(CN1C(=O)C2(COc3ccc(Br)cc32)c2ccccc21)Nc1ccccc1F (stereo not shown) [Example 3.10, 2-(5-bromo-2′-oxospiro[1-benzofuran-3,3′-indol]-1′(2′H)-yl)-N-(2-fluorophenyl)acetamide]",100 to 103
7,"O=C(CN1C(=O)C2(COc3cc4c(cc32)CCO4)c2c(Cl)cccc21)Nc1ccccc1F (stereo not shown) [Example 3.6, 2-(4′-chloro-2′-oxo-5,6-dihydrospiro[benzo[1,2-b:5,4-b′]difuran-3,3′-indol]-1′(2′H)-yl)-N-(2-fluorophenyl)acetamide]",243 to 245
8,"O=C1Nc2ccccc2C12COc1cc(OC(F)(F)F)ccc12 (stereo not shown) [Example 1.36, 6-(trifluoromethoxy)spiro[1-benzofuran-3,3′-indol]-2′(1′H)one]",180 to 182
9,"Cc1ccc2c(c1)C1(COc3cc4c(cc31)OCO4)C(=O)N2 (stereo not shown) [Example 1.28, 5′-methylspiro[furo[2,3-f][1,3]benzodioxole-7,3′-indol]-2′(1′H)-one]",269 to 271
10,"CCCCCN1C(=O)C2(COc3cc4c(cc32)OCO4)c2c(Cl)ccc(Cl)c21 (stereo not shown) [Example 1.22, 4′,7′-dichloro-1′-pentylspiro[furo[2,3-f][1,3]benzodioxole-7,3′-indol]-2′(1′H)-one]",106 to 108
11,CN(C)c1ccc(CN2C(=O)C3(COc4cc5c(cc43)OCO5)c3ccccc32)cn1.Cl (stereo not shown),146 to 150
12,"COc1ccc(-c2cccc3c2C2(COc4cc5c(cc42)OCO5)C(=O)N3Cc2ccc(C(F)(F)F)o2)cn1 (stereo not shown) [Example 4.6, 4′-(6-methoxypyridin-3-yl)-1′-{[5-(trifluoromethyl)-2-furyl]methyl}spiro[furo[2,3-f][1,3]benzodioxole-7,3′-indol]-2′(1′H)-one]",174 to 176
13,"O=C(CN1C(=O)C2(COc3cc4c(cc32)CCO4)c2ccccc21)Nc1ccccc1F (stereo not shown) [Example 3.13, N-(2-fluorophenyl)-2-(2′-oxo-5,6-dihydrospiro[benzo[1,2-b:5,4-b′]difuran-3,3′-indol]-1′(2′H)-yl)acetamide]",210 to 212
14,"O=C1N(Cc2ccc(C(F)(F)F)o2)c2cccc(-c3cncnc3)c2C12COc1cc3c(cc12)CCO3 (stereo not shown) [Example 4.14, 4′-pyrimidin-5-yl-1′-{[5-(trifluoromethyl)-2-furyl]methyl}-5,6-dihydrospiro[benzo[1,2-b:5,4-b′]difuran-3,3′-indol]-2′(1′H)-one]",263 to 266

# The next lines start with the values.
row,melting point [°C],Structure (SMILES)
1,210 to 214,"CN1C(C)(C)CC(O)(CN2C(=O)C3(COc4cc5c(cc43)OCO5)c3ccccc32)CC1(C)C (stereo not shown) [Example 10.63, 1′-[(4-hydroxy-1,2,2,6,6-pentamethylpiperidin-4-yl)methyl]spiro[furo[2,3-f][1,3]benzodioxole-7,3′-indol]-2′(1′H)-one]"
2,178 to 180,"COc1cc(C(F)(F)F)sc1CN1C(=O)C2(COc3cc4c(cc32)OCO4)c2ccccc21 (stereo not shown) [Example 10.74, 1′-{[3-methoxy-5-(trifluoromethyl)-2-thienyl]methyl}spiro[furo[2,3-f][1,3]benzodioxole-7,3′-indol]-2′(1′H)-one]"
3,159 to 161,"COc1ccc2c(c1)C1(CO2)C(=O)N(C)c2ccccc21 (stereo not shown) [Example 58, 5-methoxy-1′-methylspiro[1-benzofuran-3,3′-indol]-2′(1′H)one]"
4,82 to 84,"COc1ccc(CN2C(=O)C3(COc4cc(OC(F)(F)F)ccc43)c3ccccc32)cc1 (stereo not shown) [Example 10.91, 1′-(4-methoxybenzyl)-6-(trifluoromethoxy)spiro[1-benzofuran-3,3′-indol]-2′(1′H)-one]"
5,229 to 230,"O=C(CN1C(=O)C2(COc3cc4c(cc32)CCO4)c2c(-c3cncnc3)cccc21)Nc1ccccc1F (stereo not shown) [Example 4.20, N-(2-fluorophenyl)-2-(2′-oxo-4′-pyrimidin-5-yl-5,6-dihydrospiro[benzo[1,2-b:5,4-b′]difuran-3,3′-indol]-1′(2′H)-yl)acetamide]"
6,148 to 150,"O=C1N(Cc2ccc(-c3ccccc3Cl)o2)c2ccccc2C12COc1cc3c(cc12)OCO3 (stereo not shown) [Example 10.64, 1′-{[5-(2-chlorophenyl)-2-furyl]methyl}spiro[furo[2,3-f][1,3]benzodioxole-7,3′-indol]-2′(1′H)-one]"
7,177 to 179,"CS(=O)(=O)c1ccc(CN2C(=O)C3(COc4cc5c(cc43)OCO5)c3ccccc32)o1 (stereo not shown) [Example 10.81, 1′-{[5-(methylsulfonyl)-2-furyl]methyl}spiro[furo[2,3-f][1,3]benzodioxole-7,3′-indol]-2′(1′H)-one]"
8,155 to 160,"CC1(C)COc2cc3c(cc21)C1(CO3)C(=O)N(Cc2ccc(C(F)(F)F)o2)c2ccccc21 (stereo not shown) [Example 10.21, 5,5-dimethyl-1′-{[5-(trifluoromethyl)-2-furyl]methyl}-5,6-dihydrospiro[benzo[1,2-b:5,4-b′]difuran-3,3′-indol]-2′(1′H)-one]"
9,165 to 167,"Cc1noc(C)c1CN1C(=O)C2(COc3cc4c(cc32)OCO4)c2ccccc21 (stereo not shown) [Example 10.51, 1′-[(3,5-dimethylisoxazol-4-yl)methyl]spiro[furo[2,3-f][1,3]benzodioxole-7,3′-indol]-2′(1′H)-one]"
10,130 to 135,"O=C1N(Cc2ccccc2OC(F)(F)F)c2ccccc2C12COc1cc3c(cc12)OCO3 (stereo not shown) [Example 10.36, 1′[2-(trifluoromethoxy)benzyl]spiro[furo[2,3-f][1,3]benzodioxole-7,3′-indol]-2′(1′H)-one]"
11,99 to 101,"O=C1N(Cc2ccc(OC(F)(F)F)cc2)c2ccccc2C12COc1cc3c(cc12)OCO3 (stereo not shown) [Example 10.38, 1′[4-(trifluoromethoxy)benzyl]spiro[furo[2,3-f][1,3]benzodioxole-7,3′-indol]-2′(1′H)-one]"
12,111 to 113,"O=C1N(CCCC2CC2)c2ccccc2C12COc1cc3c(cc12)OCO3 (stereo not shown) [Example 10.32, 1′-(3-cyclopropylpropyl)spiro[furo[2,3-f][1,3]benzodioxole-7,3′-indol]-2′(1′H)-one]"
13,195 to 198,"O=C1N(Cc2cnc(Cl)s2)c2ccccc2C12COc1cc3c(cc12)OCO3 (stereo not shown) [Example 10.70, 1′[(2-chloro-1,3-thiazol-5-yl)methyl]spiro[furo[2,3-f][1,3]benzodioxole-7,3′-indol]-2′(1′H)one]"
14,142 to 144,"O=C1N(CC2CCOCC2)c2ccccc2C12COc1cc3c(cc12)OCO3 (stereo not shown) [Example 10.35, 1′-(tetrahydro-2H-pyran-4-ylmethyl)spiro[furo[2,3-f][1,3]benzodioxole-7,3′-indol]-2′(1′H)-one]"
15,215 to 217,"CS(=O)(=O)N1C(=O)C2(COc3cc4c(cc32)OCO4)c2ccccc21 (stereo not shown) [Example 10.93, 1′-(methylsulfonyl)spiro[furo[2,3-f][1,3]benzodioxole-7,3′-indol]-2′(1′H)-one]"
16,118 to 120,"CC(C)c1nc(CN2C(=O)C3(COc4cc5c(cc43)OCO5)c3ccccc32)co1 (stereo not shown) [Example 10.58, 1′-[(2-isopropyl-1,3-oxazol-4-yl)methyl]spiro[furo[2,3-f][1,3]benzodioxole-7,3′-indol]-2′(1′H)-one]"
17,120 to 121,"COc1ccc(CN2C(=O)C3(COc4cc5c(cc43)CCO5)c3ccccc32)cc1 (stereo not shown) [Example 10.46, 1′-(4-methoxybenzyl)-5,6-dihydrospiro[benzo[1,2-b:5,4-b′]difuran-3,3′-indol]-2′(1′H)-one]"
